According to PubChem BioAssay (NCI):
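Assay format: 96-well plates, 48-hour exposure. The concentration for 50% growth inhibition is given as GI50. TGI: concentration producing complete growth inhibition.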

Each molecule was assayed on HOP-92 NSCLC (assay: DTP human tumour cell line panel, 48 h).

SMILES | TGI | GI50
O=c1c2cc([N+](=O)[O-])ccc2sc2ccsc12 | > 100 µM | –
C=CCCCCCCCCC(=O)[O][Sn]([CH2]CCC)([CH2]CCC)[CH2]CCC | 0.24 µM | 0.075 µM
COc1ccc(C2=CC3CCC2C3)cc1 (stereo not drawn) | > 100 µM | –
COc1ccc(/C=C/CN(C)CCc2ccccc2)cc1OC | 9.9 µM | –
[Cl-].[Dy+3].[O-]/N=C(\c1ccccc1)c1ccccn1.[O-]/N=C(\c1ccccc1)c1ccccn1.[O-]/N=C(\c1ccccc1)c1ccccn1 | > 100 µM | 41.4 µM
CC(C)(CC(=O)Nc1ccccc1)C(=O)O | > 100 µM | –
NC(=O)C(=O)N/N=C(\CC1(O)C(=O)Nc2ccccc21)c1ccc2ccccc2c1 (stereo not drawn) | 87.8 µM | –
O=C(c1ccccc1)c1nnc(C(=O)c2ccccc2)nn1 | > 344 µM | –
Brc1cccc(C=NC23CC4CC(CC(C4)C2)C3)c1 | > 100 µM | –
Nc1nc(Cl)c2ncn(Cc3ccc(C45CC6CC(CC(C6)C4)C5)c(O)c3)c2n1 | 6.19 µM | 1.48 µM
CCC[CH2][Sn]([CH2]CCC)([O]C(=O)c1cccnc1SC)[O]C(=O)c1cccnc1SC | 1.93 µM | 0.602 µM
COc1cc(C2NC(=O)c3ccccc3N2)ccc1OCCCCCOc1c(OC)cc(C2=NOC(c3cc(OC)c(OC)c(OC)c3)C2)cc1OC (stereo not drawn) | > 100 µM | 60.2 µM
O=C1O[C@@H](c2ccc3c(c2)OCO3)C2C(=O)O[C@@H](c3ccc4c(c3)OCO4)C12 (stereo partly drawn) | > 100 µM | –
O=C1CCC(=O)N2CCCCN12 | > 100 µM | –
CC(C)C(=O)NC(=S)Nc1ccc([N+](=O)[O-])cc1C#N | > 100 µM | –
C/C(CC(=O)Nc1cc(Cl)c(Cl)cc1Cl)=N\NC(N)=O | > 100 µM | –
N#Cc1cc([N+](=O)[O-])ccc1NC(=O)C(=O)Nc1n[nH]c(N)n1 | > 100 µM | –
CS(=O)(=O)c1ccc([C@H]2O[C@@H](CO)C[C@]2(O)c2ccc(S(C)(=O)=O)cc2)cc1 | > 100 µM | > 100 µM
O=C(/C=C/c1c(O)ccc2ccccc12)c1cccc(O)c1 | 99.5 µM | –
CC1=NN(C(=O)Nc2ccccc2)C(=O)C2CCC(=O)N12 (stereo not drawn) | > 100 µM | –
COC(=O)C1Cc2c(n(Cc3ccccc3)c3ccccc23)C(CCC(=O)O)N1C(C)C (stereo not drawn) | > 100 µM | –
O=C(O)CNS(=O)(=O)c1ccc(NCc2ccccc2)cc1 | > 100 µM | –
O=C1c2cc(Cl)ccc2S(=O)(=O)c2c(NCCCNCCO)nc3ccccc3c21 | 2.44 µM | 1.01 µM
CC(C)(C)C1C=C(Sc2ccccc2)C(=O)O1 (stereo not drawn) | 75.2 µM | –
CCC[CH2][Sn]1([CH2]CCC)[O]Cc2nc(C)ccc2[O]1 | 19.2 µM | 2.52 µM
O=c1/c(=C/c2ccco2)sc2nc3ccccc3n12 | > 10 µM | –
C/C(CC(=O)Nc1ccc(C)cc1C)=N/N=C(N)N | > 100 µM | –

These molecules were tested on OVCAR-5 ovarian (assay: DTP human tumour cell line panel, 48 h).

SMILES | TGI | GI50
COC(=O)c1c/c(=N\NC(=O)CC(=O)Nc2ccccc2OC)c2ccccc2o1 | > 100 µM | –
NC(CCC(=O)NC(CSSCCCCS(=O)O)C(=O)NCC(=O)O)C(=O)O (stereo not drawn) | > 100 µM | –
C[C@@H]1OC(O)[C@@H](F)[C@H](O)[C@@H]1O (stereo partly drawn) | > 100 µM | > 100 µM
COC12C=C(C)C(CC1)CC2C(=O)O (stereo not drawn) | > 100 µM | –
OCC(O)CC[CH2][Sn]([Br])([c]1ccccc1)[c]1ccccc1 (stereo not drawn) | > 100 µM | > 100 µM
CCc1ccc(/C=C\c2cc(OC)c(OC)c(OC)c2)cc1 | > 100 µM | 16.7 µM
O=c1c2cc([N+](=O)[O-])ccc2sc2ccsc12 | > 100 µM | –
C=CCCCCCCCCC(=O)[O][Sn]([CH2]CCC)([CH2]CCC)[CH2]CCC | 0.297 µM | 0.128 µM
COc1ccc(C2=CC3CCC2C3)cc1 (stereo not drawn) | > 100 µM | –
COc1ccc(/C=C/CN(C)CCc2ccccc2)cc1OC | > 100 µM | –
[Cl-].[Dy+3].[O-]/N=C(\c1ccccc1)c1ccccn1.[O-]/N=C(\c1ccccc1)c1ccccn1.[O-]/N=C(\c1ccccc1)c1ccccn1 | > 100 µM | 42.4 µM
CC(C)(CC(=O)Nc1ccccc1)C(=O)O | > 100 µM | –
NC(=O)C(=O)N/N=C(\CC1(O)C(=O)Nc2ccccc21)c1ccc2ccccc2c1 (stereo not drawn) | > 100 µM | –
Cc1cc2c(cc1C)[n+](=O)c(C(=O)C/C(=N/NC(=O)CC#N)C(=O)Nc1ccccc1C(F)(F)F)c(C)n2[O-] | > 100 µM | –
COc1cc([N+](=O)[O-])cc2c3c(n(C)c12)[C@@]1(C)CCC2c4ccc(OCc5ccccc5)cc4CCC2C1C3 (stereo partly drawn) | > 100 µM | > 100 µM
COC(=O)/C(=N/NC(=O)C[N+](C)(C)C)C(C(=O)OC)C(=O)C(=O)Nc1ccc(F)cc1 (stereo not drawn) | > 100 µM | –
O=C(c1ccccc1)c1nnc(C(=O)c2ccccc2)nn1 | > 344 µM | –
Brc1cccc(C=NC23CC4CC(CC(C4)C2)C3)c1 | > 100 µM | –

SMILES | TGI | GI50
Nc1nc(Cl)c2ncn(Cc3ccc(C45CC6CC(CC(C6)C4)C5)c(O)c3)c2n1 | 20.6 µM | 6.13 µM
CCC(C)c1c(Cl)nc(Cl)nc1Cl (stereo not drawn) | 33.2 µM | –
CCC[CH2][Sn]([CH2]CCC)([O]C(=O)c1cccnc1SC)[O]C(=O)c1cccnc1SC | 3.17 µM | 1.76 µM
COc1cc(C2NC(=O)c3ccccc3N2)ccc1OCCCCCOc1c(OC)cc(C2=NOC(c3cc(OC)c(OC)c(OC)c3)C2)cc1OC (stereo not drawn) | > 94.3 µM | 33.9 µM
O=C1CCC(=O)N2CCCCN12 | > 100 µM | –
CC(C)C(=O)NC(=S)Nc1ccc([N+](=O)[O-])cc1C#N | > 100 µM | –
C/C(CC(=O)Nc1cc(Cl)c(Cl)cc1Cl)=N\NC(N)=O | > 100 µM | –
N#Cc1cc([N+](=O)[O-])ccc1NC(=O)C(=O)Nc1n[nH]c(N)n1 | > 100 µM | –
CS(=O)(=O)c1ccc([C@H]2O[C@@H](CO)C[C@]2(O)c2ccc(S(C)(=O)=O)cc2)cc1 | > 100 µM | > 100 µM
O=C(/C=C/c1c(O)ccc2ccccc12)c1cccc(O)c1 | > 100 µM | –
COC(=O)C1Cc2c(n(Cc3ccccc3)c3ccccc23)C(CCC(=O)O)N1C(C)C (stereo not drawn) | > 100 µM | –
O=C(O)CNS(=O)(=O)c1ccc(NCc2ccccc2)cc1 | > 100 µM | –
O=C1c2cc(Cl)ccc2S(=O)(=O)c2c(NCCCNCCO)nc3ccccc3c21 | 3.32 µM | 1.65 µM
CC(C)(C)C1C=C(Sc2ccccc2)C(=O)O1 (stereo not drawn) | > 100 µM | –
CCC[CH2][Sn]1([CH2]CCC)[O]Cc2nc(C)ccc2[O]1 | 24.8 µM | 12.3 µM
Cc1ccc2c(c1)[n+]([O-])c(N)n[n+]2[O-] | > 100 µM | –
O=c1/c(=C/c2ccco2)sc2nc3ccccc3n12 | > 10 µM | –
C/C(CC(=O)Nc1ccc(C)cc1C)=N/N=C(N)N | > 100 µM | –

Each molecule was assayed on RPMI-8226 leukemia (assay: DTP human tumour cell line panel, 48 h).

SMILES | TGI | GI50
COC(=O)c1c/c(=N\NC(=O)CC(=O)Nc2ccccc2OC)c2ccccc2o1 | > 100 µM | –
C[C@@H]1OC(O)[C@@H](F)[C@H](O)[C@@H]1O (stereo partly drawn) | > 100 µM | > 100 µM
COC12C=C(C)C(CC1)CC2C(=O)O (stereo not drawn) | > 100 µM | –
OCC(O)CC[CH2][Sn]([Br])([c]1ccccc1)[c]1ccccc1 (stereo not drawn) | > 100 µM | > 100 µM
CCc1ccc(/C=C\c2cc(OC)c(OC)c(OC)c2)cc1 | – | 0.0373 µM
O=c1c2cc([N+](=O)[O-])ccc2sc2ccsc12 | > 100 µM | –
C=CCCCCCCCCC(=O)[O][Sn]([CH2]CCC)([CH2]CCC)[CH2]CCC | 0.278 µM | 0.035 µM
COc1ccc(C2=CC3CCC2C3)cc1 (stereo not drawn) | > 100 µM | –
COc1ccc(/C=C/CN(C)CCc2ccccc2)cc1OC | > 100 µM | –
[Cl-].[Dy+3].[O-]/N=C(\c1ccccc1)c1ccccn1.[O-]/N=C(\c1ccccc1)c1ccccn1.[O-]/N=C(\c1ccccc1)c1ccccn1 | > 100 µM | 45.1 µM
CC(C)(CC(=O)Nc1ccccc1)C(=O)O | > 100 µM | –
NC(=O)C(=O)N/N=C(\CC1(O)C(=O)Nc2ccccc21)c1ccc2ccccc2c1 (stereo not drawn) | 86.3 µM | –
COc1cc([N+](=O)[O-])cc2c3c(n(C)c12)[C@@]1(C)CCC2c4ccc(OCc5ccccc5)cc4CCC2C1C3 (stereo partly drawn) | > 100 µM | 81.8 µM
COC(=O)/C(=N/NC(=O)C[N+](C)(C)C)C(C(=O)OC)C(=O)C(=O)Nc1ccc(F)cc1 (stereo not drawn) | > 100 µM | –
O=C(c1ccccc1)c1nnc(C(=O)c2ccccc2)nn1 | > 344 µM | –
Brc1cccc(C=NC23CC4CC(CC(C4)C2)C3)c1 | > 100 µM | –
CCC(C)c1c(Cl)nc(Cl)nc1Cl (stereo not drawn) | > 100 µM | –
COc1cc(C2NC(=O)c3ccccc3N2)ccc1OCCCCCOc1c(OC)cc(C2=NOC(c3cc(OC)c(OC)c(OC)c3)C2)cc1OC (stereo not drawn) | 1.1 µM | 0.0754 µM
O=C1O[C@@H](c2ccc3c(c2)OCO3)C2C(=O)O[C@@H](c3ccc4c(c3)OCO4)C12 (stereo partly drawn) | > 100 µM | –
